Results from patent US8680047B2, “Fas peptide mimetics and uses thereof” (The Trustees of the University of Pennsylvania, priority 2002, dated 2014).
Positions of bridges follow the written chain, without caps; N, C: chain ends. Residues, ends and D or L forms follow the SMILES beside them. No end group written: not given here.

How the values were obtained:
[1] = tested on: FasL-sensitive Jurkat cells; assay: FasL-induced cytotoxicity assay in Jurkat cells ([3H]-thymidine incorporation); type: cell-based, human; settings: for inhibition of Fas-mediated cytotoxicity: Jurkat cells stimulated with soluble FasL-Flag, various concentrations of mimetic
Description: To evaluate the effect of mimetics on Fas-mediated cytotoxicity, FasL-sensitive Jurkat cells were stimulated with soluble FasL-Flag fusion protein in the presence or absence of various concentrations of mimetics. The inhibitory effects of mimetics on Fas-mediated cytotoxicity were consistent with the results of the FasL-binding inhibition (FIG. 4). […] A concentration of 1 mM Kp7-6 protected more than 90% cells from Fas-mediated cytotoxicity (FIG. 4). […] Large dose of Kp7-6 was used in this experiment for better signal-to-noise ratio. To determine if mimetics derived from other binding sites would potentially be able to interact synergistically to block the Kp7 surface, Kp7 was used in combination with mimetics.
Cytotoxicity assay. Twenty microliters of Jurkat cells at 1×10^5 cells/ml were plated in 96-well U-bottom plates. FasL-Flag (120 ng/ml in culture medium) was preincubated with equal volume of peptide sample in PBS for 1 h at 37° C., and 20 μl of mixture was added to each well. After an incubation period of 24 h, each culture was pulsed with 1 μCi of [^3H]-thymidine for 24 h before harvesting on glass fiber filters. Incorporation of the ^3H-thymidine obtained with culture medium alone and with 30 ng/ml of FasL was used as reference for 100% survival and 0% survival, respectively. Survival (%) by several doses of peptides was plotted. Incorporation of the radioactive label was measured by liquid scintillation counting (Wallac, Finland) and expressed as the arithmetic mean counts per minute (cpm) of triplicate cultures.

FasL = biological target: T1, FasL (Homo sapiens, UniProt P48023); assay: Surface plasmon resonance (BIAcore) analysis, immobilized FasL-Flag; type: binding; settings: FasL-Flag immobilized on sensor chip, 25° C.
T1 construct: Flag-tagged soluble human Fas ligand (FasL-Flag); purchased Kamiya Biomedical (Seattle, Wash.)
T1 sequence (P48023 130-281 limits assumed): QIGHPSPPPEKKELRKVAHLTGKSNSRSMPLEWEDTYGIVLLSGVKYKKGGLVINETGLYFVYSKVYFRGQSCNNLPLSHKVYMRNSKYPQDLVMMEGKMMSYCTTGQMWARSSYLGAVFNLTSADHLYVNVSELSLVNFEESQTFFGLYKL
Description: The kinetics of binding of Kp7-6, which mediated the best inhibitory activity to FasL, was performed using surface plasmon resonance (BIAcore™) analysis. […] The koff value is considered as an important indicator in the development of therapeutics with biological activity (Benveniste, M. et al. Br J Pharmacol 104, 207-221 (1991); Yiallouros, I. et al. Biochem J 331, 375-379 (1998)), and generally correlates with potent biological effects. (Moosmayer, D. et al. J Interferon Cytokine Res 16, 471-477 (1996)). […] (Berezov, A. et al. J Med Chem 44, 2565-2574 (2001)).
To assess the specificity of Kp7-6 binding interaction, Fas, FasL and TNFα were immobilized on a sensor chip. Kp7-6 bound to FasL but not to TNFα, which indicates Kp7-6 bound to FasL specifically (FIG. 3B). […] (Naismith, J. H. et al. Structure 4, 1251-1262 (1996)).
Biosensor analysis. All experiments were carried out on a BIAcore 3000 instrument (Biacore AG, Uppsala, Sweden) at 25° C. using PBS, pH 7.4, containing 0.005% surfactant P20 (Biacore AG) as the running buffer. FasL-Flag, Fas-Fc or TNFRI-Fc was immobilized on research-grade CM5 sensor chips (Biacore AG) using standard N-ethyl-N-dimethylaminopropyl carbodiimid/N-hydroxysuccinimide coupling. […] Data were analyzed with the BIA evaluation 3.0 software (Biacore AG). […]

[2] = tested on: Con A-induced hepatitis model; assay: Con A-induced hepatitis model, serum transaminase activity; type: in vivo, C57BL/6 mice; settings: IP pretreatment 30 min before Con A iv
Description: The biological activity of mimetic Kp7-6 was measured in vivo. FasL induced apoptosis is one of the primary and dominant pathways by which liver cells undergo apoptosis under various conditions such as viral infection, drug toxicity and other lesions. (Kakinuma, C. et al. Toxicol Pathol 27, 412-420 (1999); Famularo, G., et al. Med Hypotheses 53, 50-62 (1999); Gantner et al. supra). […] (Zhang, H. et al. Nat Biotechnol 18, 862-867 (2000); Song, E. et al. Nat Med (2003)). The antagonistic effect of Kp7-6 in vivo was tested using the Con A-induced hepatitis model. C57BL/6 mice were pretreated intraperitoneally (IP) with anti-FasL monoclonal antibody, Fas mimetic peptides or saline. After 30 min, animals were challenged intravenously with Con A or saline. The induction of liver damage and inflammatory hepatitis was evaluated by measuring the serum activities of alanine aminotransferase (ALT) and aspartate aminotransferase (AST) 12 h after Con A treatment.
Administration of Con A and Measurement of Serum Transaminase Activity. […]
Blood samples were collected from mice at 12 h after Con A injection, and the serum was taken by centrifugation. Serum activities of alanine aminotransferase (ALT) and aspartate aminotransferase (AST) were measured by Lippi-Guidi's method (Iatrozyme TA-LQ: Dia-Iatron Inc., Tokyo, Japan). […]

Molecule | inhibition of Fas-mediated cytotoxicity [1] | block of Con A-induced hepatic injury [2] | other results
N[C@@H](Cc1ccc(O)cc1)C(=O)N[C@H]1CSSC[C@@H](C(=O)N[C@@H](Cc2ccc(O)cc2)C(=O)O)NC(=O)[C@H](Cc2ccccc2)NC(=O)[C@H](Cc2c[nH]cn2)NC(=O)[C@H](CCC(=O)O)NC(=O)[C@H](CC(=O)O)NC1=O [Kp7-6, YCDEHFCY] (H-YCDEHFCY-OH; disulfide 2-7; N-terminus and C-terminus assumed) | dose-dependent inhibitory activity |  | cells protected from Fas-mediated cytotoxicity ([1]; 1 mM mimetic, Jurkat cells, FasL-Flag): more than 90%; koff (FasL; read-out: koff rate constant): 0.000765 s⁻¹; kon (FasL; read-out: kon rate constant): 68.5 M⁻¹ s⁻¹
YCDEHGLCY (disulfide 2-8 (inferred)) [Kp7-7, exocyclic mimetic derived from Fas Kp7 loop] |  | protection of mice against Con A induced liver injury | 
YCDEQFCY (disulfide 2-7 (inferred)) [Kp7-10, exocyclic mimetic derived from Fas Kp7 loop] | dose-dependent inhibition |  | synergy in combination with members of the Kp4 mimetics ([1]; Fas-mediated cytotoxicity, data not shown): Neither Kp7-6 nor Kp7-10 used in combination with members of the Kp4 mimetics showed any significant synergy
YCNSTVCY (disulfide 2-7 (inferred)) [Kp1-1, exocyclic mimetic derived from Fas Kp1 loop] |  | did not block the hepatic injury | 
